In patent US20090238808A1, “Process for the identification of novel enzyme interacting compounds” (priority 2005, published 2009):

Legend:
Assay in all cases: Kinobeads elution with test compound, mouse brain lysate, MS
Assay type in all cases: binding
Settings in all cases: kinase released from kinobeads by specific elution
AAK1 = AAK1 (Mus musculus, UniProt Q3UHJ0)
Description: (§1) This example illustrates competitive elution of proteins bound to kinobeads with non-modified test compounds (see particularly the fourth aspect of the invention). The kinobeads (as described in example 1) were contacted with mouse brains lysate, bound proteins were eluted with various test compounds and the released proteins were analysed by mass spectrometry.
(§2) The kinobeads were contacted with mouse brain lysate under conditions that allow the binding of the proteins in the lysate to the ligands. The binding conditions were close to physiological by choosing suitable buffer conditions preserving the function of the proteins. After removing non-captured proteins through a gentle washing procedure the bound proteins were contacted with a test compound for protein elution.
(§3) Various test compounds (see section 2.7) were used to release bound proteins following these steps:
(§4) 1. Resuspend beads with bound proteins (section 2.4) in 1×DP buffer/0.2% NP-40 as 1:3 slurry (volume/volume). 2. Transfer 20 μl the 1:3 slurry into MoBiTech columns (equivalent to 5 μl of beads). 3. Place the column into an Eppendorf tube and centrifuge it for 15 seconds at 800 rpm at 4° C. Close columns with lower lid. 4. Add 10 μl elution buffer containing 1.0 mM of the test compound (concentration ranges of 0.1 to 1.0 mM are suitable). As a control use elution buffer containing 2% DMSO or 2% DMF dependent on the solvent used for dissolving the test compound. Close column with upper lid. 5. Incubate for 30 minutes at 4° C. in an Eppendorf incubator at 700 rpm. 6. Open column (first top, then bottom), put column back into siliconized tube (SafeSeal Microcentrifuge Tubes, cat. no 11270, Sorenson BioScience, Inc.). To harvest the eluate centrifuge 2 minutes at 2.000 rpm in table top centrifuge at room temperature. The typical volume of the eluate is approximately 15 μl. 7. Add 5 μl 4× NuPAGE SDS Sample Buffer (Invitrogen, NP0007) containing 100 mM DTT (DTT has to be added just prior to use). 8. Incubate for 30 minutes at 50° C. 9. Add 1/10 volume of 200 mg/ml iodoacetamide, incubate for 30 min at room temperature, protect from light. This reaction leads to the alkylation of cysteines for mass spectrometry. 10. Before loading samples onto the gel, centrifuge samples for 5 minutes at 15.000 rpm in order to remove precipitates. 11. For protein separation apply 10 μl sample to NuPAGE 4-12% Bis-Tris gel (Invitrogen, NPO335). 2.6 Preparation of Stock Solutions used in this Protocol
(§5) Search criteria varied depending on which mass spectrometer was used for the analysis.

CDK5 = CDK5 (Mus musculus, UniProt P49615)
Description: as §1, §2, §3, §4, §5

Erk2 = target: T1, Erk2 (Mus musculus, UniProt P63085)
T1 construct: […]; from tissue; host or cells: mouse brain
Description: as §1, §2, §3, §4, §5

GSK3Aps = target: T2, GSK3Aps (Mus musculus, UniProt Q2NL51)
T2 construct: from tissue; host or cells: mouse brain
Description: as §1, §2, §3, §4, §5

JNK1 = target: T3, JNK1 (Mus musculus, UniProt Q91Y86)
T3 construct: from tissue; host or cells: mouse brain
Description: as §1, §2, §3, §4, §5

JNK2 = target: T4, JNK2 (Mus musculus, UniProt Q9WTU6)
T4 construct: from tissue; host or cells: mouse brain
Description: as §1, §2, §3, §4, §5

JNK3 = target: T5, JNK3 (Mus musculus, UniProt Q61831)
T5 construct: from tissue; host or cells: mouse brain
Description: as §1, §2, §3, §4, §5

p38a = target: T6, p38a (Mus musculus, UniProt P47811)
T6 construct: from tissue; host or cells: mouse brain
Description: as §1, §2, §3, §4, §5

p38b = target: T7, p38b (Mus musculus, UniProt Q9WUI1)
T7 construct: from tissue; host or cells: mouse brain
Description: as §1, §2, §3, §4, §5

GSK3B = target: T8, GSK3B (Mus musculus, UniProt Q9WV60)
T8 construct: from tissue; host or cells: mouse brain
From the text: (§6) This example illustrates competitive elution of proteins bound to kinobeads with non-modified test compounds (see particularly the fourth aspect of the invention).
as §2, §3
as §4, with “Open column (first top, then bottom), put column back into siliconized tube (SafeSeal Microcentrifuge Tubes, cat. no 11270, Sorenson BioScience, Inc.).” left out, “For protein separation apply 10 μl sample to NuPAGE 4-12% Bis-Tris gel (Invitrogen, NPO335).” left out
as §5

CRIK = CRIK (Mus musculus, UniProt P49025)
Description: as §1, §2, §3, §4, §5

CaMK2a = target: T9, CaMK2a (Mus musculus, UniProt P11798)
T9 construct: […]; from tissue; host or cells: mouse brain
Description: as §1, §2, §3, §4, §5

CaMK2b = CaMK2b (Mus musculus, UniProt P28652)
Description: as §1, §2, §3, §4, §5

CaMK2d = target: T10, CaMK2d (Mus musculus, UniProt Q6PHZ2)
T10 construct: […]; from tissue; host or cells: mouse brain
Description: as §1, §2, §3, §4, §5

CaMKK2 = CaMKK2 (Mus musculus, UniProt Q8C078)
Description: as §1, §2, §3, §4, §5

Erk1ps5 = target: T11, Erk1ps5 (Mus musculus, UniProt Q63844)
T11 construct: […]; from tissue; host or cells: mouse brain
Description: as §1, §2, §3, §4, §5

FER = FER (Mus musculus, UniProt P70451)
Description: as §1, §2, §3, §4, §5

MAP2K1 = target: T12, MAP2K1 (Mus musculus, UniProt P31938)
T12 construct: from tissue; host or cells: mouse brain
Description: as §1, §2, §3, §4, §5

MARK2 = target: T13, MARK2 (Mus musculus, UniProt Q05512)
T13 construct: from tissue; host or cells: mouse brain
Description: as §1, §2, §3, §4, §5

PKCg = target: T14, PKCg (Mus musculus, UniProt P63318)
T14 construct: from tissue; host or cells: mouse brain
Description: as §1, §2, §3, §4, §5

PYK2 = target: T15, PYK2 (Mus musculus, UniProt Q9QVP9)
T15 construct: from tissue; host or cells: mouse brain
Description: as §1, §2, §3, §4, §5

RSK1 (Mus musculus) = tested on: T16, RSK1 (Mus musculus)
T16 construct: from tissue; host or cells: mouse brain
Description: as §1, §2, §3, §4, §5

CaMK2g = CaMK2g (Mus musculus, UniProt Q923T9)
From the text: as §6, §2, §3
as §4, with “Open column (first top, then bottom), put column back into siliconized tube (SafeSeal Microcentrifuge Tubes, cat. no 11270, Sorenson BioScience, Inc.).” left out, “For protein separation apply 10 μl sample to NuPAGE 4-12% Bis-Tris gel (Invitrogen, NPO335).” left out
as §5

AAK1, sequence (Q3UHJ0 whole entry): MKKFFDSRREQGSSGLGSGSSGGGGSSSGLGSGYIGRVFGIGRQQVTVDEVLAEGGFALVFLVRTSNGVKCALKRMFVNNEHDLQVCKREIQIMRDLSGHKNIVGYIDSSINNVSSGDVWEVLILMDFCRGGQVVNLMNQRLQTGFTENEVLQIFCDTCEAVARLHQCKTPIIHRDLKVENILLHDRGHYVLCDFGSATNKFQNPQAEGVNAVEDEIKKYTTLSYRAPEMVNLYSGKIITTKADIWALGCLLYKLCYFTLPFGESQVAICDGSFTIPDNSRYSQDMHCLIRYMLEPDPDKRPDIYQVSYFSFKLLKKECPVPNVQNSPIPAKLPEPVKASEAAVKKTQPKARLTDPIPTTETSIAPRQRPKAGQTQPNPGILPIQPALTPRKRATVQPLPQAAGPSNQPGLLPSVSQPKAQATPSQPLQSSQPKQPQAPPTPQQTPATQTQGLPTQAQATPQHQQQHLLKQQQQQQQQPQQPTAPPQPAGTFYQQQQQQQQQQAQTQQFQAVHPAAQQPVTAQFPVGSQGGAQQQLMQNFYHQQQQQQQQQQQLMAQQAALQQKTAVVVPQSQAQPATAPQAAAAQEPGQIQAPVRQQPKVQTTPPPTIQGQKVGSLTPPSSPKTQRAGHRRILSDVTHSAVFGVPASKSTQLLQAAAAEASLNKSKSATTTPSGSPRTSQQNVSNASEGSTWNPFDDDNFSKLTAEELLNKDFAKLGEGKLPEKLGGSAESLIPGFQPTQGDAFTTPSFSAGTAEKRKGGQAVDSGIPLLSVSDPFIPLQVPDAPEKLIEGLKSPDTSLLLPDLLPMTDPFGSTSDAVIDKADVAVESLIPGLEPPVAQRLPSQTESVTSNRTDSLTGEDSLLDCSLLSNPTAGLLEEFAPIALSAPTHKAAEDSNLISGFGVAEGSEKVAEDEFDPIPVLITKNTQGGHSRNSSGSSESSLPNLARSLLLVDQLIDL
T8 sequence (Q9WV60 whole entry): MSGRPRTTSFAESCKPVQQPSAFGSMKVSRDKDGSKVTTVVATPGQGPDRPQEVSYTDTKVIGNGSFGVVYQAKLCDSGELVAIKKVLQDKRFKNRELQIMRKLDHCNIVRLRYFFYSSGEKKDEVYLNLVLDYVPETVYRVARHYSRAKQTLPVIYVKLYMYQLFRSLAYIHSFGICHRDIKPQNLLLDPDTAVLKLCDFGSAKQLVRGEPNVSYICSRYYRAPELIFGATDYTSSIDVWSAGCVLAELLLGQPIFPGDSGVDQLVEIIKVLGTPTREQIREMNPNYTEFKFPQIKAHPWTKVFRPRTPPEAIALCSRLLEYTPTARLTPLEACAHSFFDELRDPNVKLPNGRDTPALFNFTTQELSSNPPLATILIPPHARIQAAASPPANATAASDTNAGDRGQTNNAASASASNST
CDK5, sequence (P49615 whole entry): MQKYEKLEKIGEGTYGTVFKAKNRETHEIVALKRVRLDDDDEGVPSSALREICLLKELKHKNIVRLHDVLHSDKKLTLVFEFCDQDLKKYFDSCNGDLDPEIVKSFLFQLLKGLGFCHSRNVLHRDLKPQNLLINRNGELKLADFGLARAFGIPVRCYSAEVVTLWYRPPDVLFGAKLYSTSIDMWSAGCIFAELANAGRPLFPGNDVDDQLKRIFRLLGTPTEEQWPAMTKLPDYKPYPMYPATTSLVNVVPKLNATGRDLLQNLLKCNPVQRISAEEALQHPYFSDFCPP
T2 sequence (Q2NL51 2-490 limits assumed): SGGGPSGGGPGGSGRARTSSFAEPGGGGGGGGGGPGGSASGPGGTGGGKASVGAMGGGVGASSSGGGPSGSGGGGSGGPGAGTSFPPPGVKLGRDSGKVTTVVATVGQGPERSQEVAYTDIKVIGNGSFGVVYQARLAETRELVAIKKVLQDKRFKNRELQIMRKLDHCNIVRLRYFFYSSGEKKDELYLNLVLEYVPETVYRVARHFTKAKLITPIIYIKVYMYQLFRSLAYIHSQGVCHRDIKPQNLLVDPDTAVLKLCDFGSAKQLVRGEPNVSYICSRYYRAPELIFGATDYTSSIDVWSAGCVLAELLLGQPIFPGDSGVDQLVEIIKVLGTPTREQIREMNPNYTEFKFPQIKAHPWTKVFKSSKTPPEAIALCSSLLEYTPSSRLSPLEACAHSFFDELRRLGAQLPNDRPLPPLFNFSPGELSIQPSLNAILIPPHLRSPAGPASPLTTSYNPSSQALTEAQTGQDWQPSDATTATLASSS
T1 sequence (P63085 whole entry): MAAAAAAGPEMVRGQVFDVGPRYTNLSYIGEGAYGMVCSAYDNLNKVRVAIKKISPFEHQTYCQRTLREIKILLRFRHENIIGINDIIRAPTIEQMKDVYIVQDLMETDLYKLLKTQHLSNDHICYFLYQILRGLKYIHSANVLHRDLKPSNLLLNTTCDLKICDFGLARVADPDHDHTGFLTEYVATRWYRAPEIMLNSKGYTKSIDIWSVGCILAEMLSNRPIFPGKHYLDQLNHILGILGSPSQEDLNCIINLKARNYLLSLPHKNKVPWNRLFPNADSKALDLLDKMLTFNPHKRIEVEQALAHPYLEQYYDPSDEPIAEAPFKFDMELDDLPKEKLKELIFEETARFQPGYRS
T4 sequence (Q9WTU6 whole entry): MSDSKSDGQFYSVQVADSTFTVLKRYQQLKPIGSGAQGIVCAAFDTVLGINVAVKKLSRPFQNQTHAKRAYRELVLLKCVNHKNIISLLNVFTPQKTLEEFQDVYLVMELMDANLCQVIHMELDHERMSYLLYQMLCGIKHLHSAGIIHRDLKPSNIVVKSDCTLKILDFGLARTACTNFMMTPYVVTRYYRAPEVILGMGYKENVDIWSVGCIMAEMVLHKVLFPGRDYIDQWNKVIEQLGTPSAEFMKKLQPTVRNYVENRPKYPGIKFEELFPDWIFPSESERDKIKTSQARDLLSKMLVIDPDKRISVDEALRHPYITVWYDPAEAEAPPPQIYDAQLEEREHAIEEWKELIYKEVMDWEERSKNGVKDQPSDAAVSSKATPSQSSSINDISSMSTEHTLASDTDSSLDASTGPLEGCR
CRIK, sequence (P49025 whole entry): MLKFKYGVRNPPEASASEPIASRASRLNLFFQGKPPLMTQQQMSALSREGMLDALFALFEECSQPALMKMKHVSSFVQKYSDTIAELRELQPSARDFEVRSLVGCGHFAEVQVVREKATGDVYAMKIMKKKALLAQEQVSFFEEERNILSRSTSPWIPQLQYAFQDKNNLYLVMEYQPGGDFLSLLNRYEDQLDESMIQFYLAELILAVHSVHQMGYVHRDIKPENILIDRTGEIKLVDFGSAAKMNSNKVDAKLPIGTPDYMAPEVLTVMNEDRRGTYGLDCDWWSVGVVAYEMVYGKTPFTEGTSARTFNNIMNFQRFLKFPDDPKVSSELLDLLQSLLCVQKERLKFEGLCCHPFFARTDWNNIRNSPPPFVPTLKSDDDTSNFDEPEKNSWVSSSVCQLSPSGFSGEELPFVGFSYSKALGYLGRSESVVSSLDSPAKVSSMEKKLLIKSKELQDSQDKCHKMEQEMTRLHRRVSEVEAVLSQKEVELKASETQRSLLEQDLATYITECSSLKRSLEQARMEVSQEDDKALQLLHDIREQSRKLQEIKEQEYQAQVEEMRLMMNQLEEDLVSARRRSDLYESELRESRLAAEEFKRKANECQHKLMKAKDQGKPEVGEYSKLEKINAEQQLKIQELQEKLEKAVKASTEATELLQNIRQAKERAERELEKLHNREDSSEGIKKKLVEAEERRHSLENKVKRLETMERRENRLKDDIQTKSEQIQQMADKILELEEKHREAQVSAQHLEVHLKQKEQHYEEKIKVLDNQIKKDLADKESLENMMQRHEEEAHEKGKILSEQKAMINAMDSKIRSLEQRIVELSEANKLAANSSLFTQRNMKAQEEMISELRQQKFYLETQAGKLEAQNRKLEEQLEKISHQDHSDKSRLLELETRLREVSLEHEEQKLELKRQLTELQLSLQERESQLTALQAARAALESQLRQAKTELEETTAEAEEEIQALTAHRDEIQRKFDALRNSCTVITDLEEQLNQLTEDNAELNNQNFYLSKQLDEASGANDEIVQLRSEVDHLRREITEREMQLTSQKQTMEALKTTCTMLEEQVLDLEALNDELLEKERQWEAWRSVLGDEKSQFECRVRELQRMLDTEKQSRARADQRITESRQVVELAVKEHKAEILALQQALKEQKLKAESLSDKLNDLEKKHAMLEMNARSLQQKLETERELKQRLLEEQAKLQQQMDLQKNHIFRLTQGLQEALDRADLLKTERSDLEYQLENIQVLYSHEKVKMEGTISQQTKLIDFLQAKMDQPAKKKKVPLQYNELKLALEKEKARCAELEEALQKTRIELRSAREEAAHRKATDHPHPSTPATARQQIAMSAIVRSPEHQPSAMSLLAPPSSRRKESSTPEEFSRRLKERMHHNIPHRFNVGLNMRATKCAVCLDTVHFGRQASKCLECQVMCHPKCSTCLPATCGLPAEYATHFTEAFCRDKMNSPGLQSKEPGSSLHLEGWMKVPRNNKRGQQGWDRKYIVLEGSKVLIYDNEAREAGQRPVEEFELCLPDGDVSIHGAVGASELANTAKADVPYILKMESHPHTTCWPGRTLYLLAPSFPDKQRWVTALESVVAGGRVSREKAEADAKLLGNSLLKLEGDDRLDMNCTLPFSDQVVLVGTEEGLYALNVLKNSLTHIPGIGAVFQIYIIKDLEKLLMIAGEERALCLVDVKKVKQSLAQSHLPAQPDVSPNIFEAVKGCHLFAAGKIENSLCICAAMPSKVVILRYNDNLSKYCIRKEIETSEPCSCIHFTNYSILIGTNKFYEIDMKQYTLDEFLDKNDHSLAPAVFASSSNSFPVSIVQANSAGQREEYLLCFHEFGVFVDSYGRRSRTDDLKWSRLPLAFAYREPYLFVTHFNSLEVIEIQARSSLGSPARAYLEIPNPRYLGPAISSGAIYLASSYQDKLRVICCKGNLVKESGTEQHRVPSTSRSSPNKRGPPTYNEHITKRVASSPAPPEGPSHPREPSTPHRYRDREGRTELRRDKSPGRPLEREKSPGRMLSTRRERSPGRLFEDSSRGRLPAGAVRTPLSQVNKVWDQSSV

Compound: Oc1ccc(-c2nc(-c3ccc(F)cc3)c(-c3ccncc3)[nH]2)cc1 [CZC7098]
- mass spectrometry score, AAK1 (AAK1): 198
- number of identified peptides, AAK1 (AAK1): 4
- mass spectrometry score, CDK5 (CDK5): 166
- number of identified peptides, CDK5 (CDK5): 4
- mass spectrometry score, Erk2 (Erk2): 506
- number of identified peptides, Erk2 (Erk2): 20
- mass spectrometry score, GSK3Aps (GSK3Aps): 406
- number of identified peptides, GSK3Aps (GSK3Aps): 8
- mass spectrometry score, JNK1 (JNK1): 540
- number of identified peptides, JNK1 (JNK1): 19
- mass spectrometry score, JNK2 (JNK2): 170
- number of identified peptides, JNK2 (JNK2): 5
- mass spectrometry score, JNK3 (JNK3): 542
- number of identified peptides, JNK3 (JNK3): 30
- mass spectrometry score, p38a (p38a): 295
- number of identified peptides, p38a (p38a): 10
- mass spectrometry score, p38b (p38b): 80
- number of identified peptides, p38b (p38b): 2
- mass spectrometry score, GSK3B (GSK3B): 743
- number of identified peptides, GSK3B (GSK3B): 34

Compound: NCCCn1cc(C2=C(c3c[nH]c4ccccc34)C(=O)NC2=O)c2ccccc21 [CZC1038, Bisindolylmaleimide III, reference compound]
- mass spectrometry score, AAK1 (AAK1): 562
- number of identified peptides, AAK1 (AAK1): 38
- mass spectrometry score, CDK5 (CDK5): 831
- number of identified peptides, CDK5 (CDK5): 19
- mass spectrometry score, CR1K (CRIK): 90
- number of identified peptides, CR1K (CRIK): 5
- mass spectrometry score, CaMK2a (CaMK2a): 911
- number of identified peptides, CaMK2a (CaMK2a): 53
- mass spectrometry score, CaMK2b (CaMK2b): 834
- number of identified peptides, CaMK2b (CaMK2b): 52
- mass spectrometry score, CaMK2d (CaMK2d): 702
- number of identified peptides, CaMK2d (CaMK2d): 17
- mass spectrometry score, CaMKK2 (CaMKK2): 314
- number of identified peptides, CaMKK2 (CaMKK2): 6
- mass spectrometry score, Erk1ps5 (Erk1ps5): 418
- number of identified peptides, Erk1ps5 (Erk1ps5): 14
- mass spectrometry score, Erk2 (Erk2): 754
- number of identified peptides, Erk2 (Erk2): 50
- mass spectrometry score, FER (FER): 237
- number of identified peptides, FER (FER): 6
- mass spectrometry score, GSK3Aps (GSK3Aps): 1232
- number of identified peptides, GSK3Aps (GSK3Aps): 60
- mass spectrometry score, JNK2 (JNK2): 287
- number of identified peptides, JNK2 (JNK2): 11
- mass spectrometry score, MAP2K1 (MAP2K1): 208
- number of identified peptides, MAP2K1 (MAP2K1): 6
- mass spectrometry score, MARK2 (MARK2): 49
- number of identified peptides, MARK2 (MARK2): 1
- mass spectrometry score, PKCg (PKCg): 107
- number of identified peptides, PKCg (PKCg): 2
- mass spectrometry score, PYK2 (PYK2): 291
- number of identified peptides, PYK2 (PYK2): 7
- mass spectrometry score, RSK1 (RSK1 (Mus musculus)): 292
- number of identified peptides, RSK1 (RSK1 (Mus musculus)): 7
- mass spectrometry score, CaMK2g (CaMK2g): 550
- number of identified peptides, CaMK2g (CaMK2g): 18
- mass spectrometry score, GSK3B (GSK3B): 1176
- number of identified peptides, GSK3B (GSK3B): 54
